Data on five molecules can be found in patent US5888994A, “Fluorinated Vitamin D3 analogs” (Hoffmann-La Roche Inc., priority 1997, dated 1999).

In one data set the test system is HL-60 cells. The data set can be described thus: HL-60 cell differentiation (oxidative burst via NBT reduction). Format: cell-based. The conditions noted are these: Homo sapiens, 72 h, 3 days, NBT reduction at 540 nm, mean of 3 wells, read-out: ED50 (concentration leading to 50% of maximal differentiation achieved with 100-1000 nM calcitriol). The procedure: The induction of differentiation of HL-60 cells was assayed by measuring their oxidative burst potential via the reduction of NBT (Nitrobluetetrazolium).
30,000 cells/90 μl of RPMI/FCS were seeded into flat-bottomed microtiter wells. 10 μl of vitamin D derivatives diluted in complete medium were added at the same time to yield final concentrations between 10^-11 and 10^-6 M (stock solutions of 10^-2 M in ethanol were kept at -20° C. and protected from light).
Values were expressed as percent of maximal differentiation achieved with 100-1000 nM calcitriol in the same experiment.

A further data set relates to HaCaT cells. The data set can be described thus: Inhibition of keratinocyte proliferation (3H-thymidine uptake, HaCaT). In kind it is cell-based. The conditions noted are these: HaCaT human keratinocyte line, 6 days of culture. The procedure:
HaCaT cell line--The immortalized human cell line HaCaT was used. ^3 H-thymidine incorporation was measured in exponentially growing cultures after 6 days of culture in presence of the test compound.
Cell culture--HaCaT cells were cultured in Dulbecco's Modified Eagle Medium (DMEM) and Nutrient Mixture Ham's F12 (F12), 3:1 (v/v, ICN) containing 4.5 g/l glucose and supplemented with 10% fetal calf serum (Gibco, FCS), L-glutamine (Gibco, 2mM), penicillin (Gibco, 50 UI/ml), streptomycin (Gibco, 50 μg/ml), EGF (10 ng/ml), hydrocortisone (400 ng/ml), cholera toxin (8.5 ng/ml) and insulin (5 ng/ml). The cells were maintained in a humidified atmosphere containing 5% CO2 and 95% air and passaged every 3-4 days.
Inhibition of ^3 H-thymidine uptake--HaCaT cells (250 cells in complete culture medium) were seeded into 96-well culture dishes and incubated at 37° C. with 5% CO2 and 95% air for 6 days. Inhibitors, dissolved at 10× concentration in 1% ethanol, were added immediately at the beginning of the assay. ^3 H-thymidine (5 Ci/mmol, Amersham) was added at a concentration of 1 μCi/well and cells were pulse-labelled for the last 6 hours of the growth period. Cells were then trypsinized for 10 minutes at 37° C. under a vigorous agitation and harvested on to a 96-well GF/C filter plate (Uni Filter, Packard) using a Micro Mate 196 cell harvester (Packard). After drying at 40° C. under vacuum for 20-30 minutes, 2 μl of Micro Scint 0 scintillator (Packard) were added and the radioactivity bound to the filters was counted on a TOP COUNT (Packard).

Data set [1] in a line: Calcium liability (tolerance test in mice). The conditions noted are these: mouse, in vivo, sc, daily subcutaneous administration for 4 consecutive days, 5 day treatment period, read-out: HTD (highest tolerated dose: dose which results in zero weight gain). The source says:
Profound changes in calcium homeostasis strongly affect the weight development of the animals. This parameter was used as a primary test for tolerance.
Mice (25-30 g body weight) received daily subcutaneous administrations of the vitamin D derivative for 4 consecutive days. Body weight was registered just before and at the end of a […] treatment period. The "highest tolerated dose" (HTD) is the dose which results in zero weight gain during this treatment period.

For the next data set, the system named is sebaceous cells. Briefly: Inhibition of human sebocyte proliferation in vitro. Format: cell-based. The conditions noted are these: tested at 10^-6, 10^-7 and 10^-8 M, vs vehicle-treated culture, read-out: ED50 (amount of compound necessary to inhibit the proliferation of sebaceous cells by 50%). On the procedure:
Sebaceous cells were isolated from adult human sebaceous glands by a combination of enzymatic and mechanical methods (Doran et al., Characterization of Human Cells In Vitro, J. Invest. Dermatol. 96:34-8 (1991)). The cells were cultured in Iscove's medium containing 10% fetal calf serum and 4 μg/ml dexamethasone on a layer of growth-arrested 3T3 mouse fibroblasts. Cells were plated in medium without the test compound and then given test compound in fresh medium, containing the test compound, every 48 hours. On the day of harvesting, the cultures were rinsed with 0.03% EDTA in PBS, to remove only the 3T3 fibroblasts, followed by incubation in 0.05% trypsin/0.03% EDTA. The cells were suspended, mixed vigorously to prepare a single cell suspension and counted in a hemocytometer.
Stock solutions of compounds were made up as 10^-2 M solutions in degassed 100% ethanol and stored at -20° C. in the dark. During experimental use, the solutions, which have been aliquoted, were brought to room temperature and used by diluting directly into complete medium to appropriate concentration.
The compounds were tested for the inhibition of proliferation of sebaceous cell growth in vitro at 10^-6, 10^-7 and 10^-8 M.
The results are summarized in Table III below as the amount of compound necessary to inhibit the proliferation of sebaceous cells by 50% (ED50) in nM as compared to a vehicle-treated culture.

SMILES strings stand for the structures.

Consider `C=C1/C(=C\C=C2/CCC[C@]3(C)C([C@H](C)CC#CC(C)(O)C(F)(F)F)=CC[C@@H]23)C[C@@H](O)C[C@@H]1F` (stereo partly drawn) [1α-fluoro-25(R,S)-hydroxy-16-ene-23-yne-26-trifluoro-cholecalciferol], for which the EC50 in the data set with HL-60 cells is 3.7 nM. The same molecule showed an IC50 in the data set on HaCaT cells of 11 nM. In data set [1], the MTD at 120 h stood at 0.02 mg/kg.

In the case of `C=C1/C(=C\C=C2/CCC[C@]3(C)[C@@H]([C@H](C)CCCC(C)(C)O)CC[C@@H]23)C[C@@H](O)C[C@@H]1O` [1,25-Dihydroxycholecalciferol, reference compound], the EC50 in the data set with HL-60 cells turned out to be 8 nM.

As for `C=C1/C(=C\C=C2/CCC[C@]3(C)C([C@H](C)CC#CC(C)(O)C(F)(F)F)=CC[C@@H]23)C[C@@H](O)C[C@@H]1O` (stereo partly drawn) [1,25(R,S)-Dihydroxy-16-ene-23-yne-26-trifluoro-cholecalciferol], the EC50 with HL-60 cells came out at 0.15 nM. Besides, the IC50 turned out to be 10 nM in the data set on HaCaT cells and 1 nM in the data set with sebaceous cells. The MTD at 120 h in data set [1] was found to be 0.001 mg/kg.

Take `C[C@H](CC#CC(C)(O)C(F)(F)F)C1=CC[C@H]2/C(=C/C=C3C[C@@H](O)C[C@H](O)C3)CCC[C@]12C` (stereo partly drawn) [1,25(R,S)-Dihydroxy-16-ene-23-yne-26-trifluoro-19-nor-cholecalciferol]: in the data set with HL-60 cells, the EC50 is 0.37 nM. This molecule showed an IC50 in the data set with HaCaT cells of 5.1 nM. Besides, the MTD at 120 h in data set [1] turned out to be 0.002 mg/kg.

Turning to `C=C1CC[C@H](O)C/C1=C/C=C1\CCC[C@]2(C)C([C@H](C)CC#CC(C)(O)C(F)(F)F)=CC[C@@H]12` (stereo partly drawn) [25(R,S)-Hydroxy-16-ene-23-yne-26-trifluoro-cholecalciferol], in the data set on HL-60 cells, the EC50 worked out at 160 nM. For the same molecule, in the data set with HaCaT cells, the IC50 amounted to 650 nM. Further, the MTD at 120 h in data set [1] turned out to be 0.6 mg/kg.
